This is an account of results in patent US20210122763A1, “OGA INHIBITOR COMPOUNDS” (Janssen Pharmaceutica NV, priority 2018, published 2021).

One experiment addresses T1, OGA (Homo sapiens, UniProt O60502).
T1 construct: HEK293 cells inducible for P301L mutant human Tau (isoform 2N4R) were established at Janssen; endogenous in cells; host or cells: HEK293 cells inducible for P301L mutant human Tau (2N4R)
T1 sequence (O60502 1-916): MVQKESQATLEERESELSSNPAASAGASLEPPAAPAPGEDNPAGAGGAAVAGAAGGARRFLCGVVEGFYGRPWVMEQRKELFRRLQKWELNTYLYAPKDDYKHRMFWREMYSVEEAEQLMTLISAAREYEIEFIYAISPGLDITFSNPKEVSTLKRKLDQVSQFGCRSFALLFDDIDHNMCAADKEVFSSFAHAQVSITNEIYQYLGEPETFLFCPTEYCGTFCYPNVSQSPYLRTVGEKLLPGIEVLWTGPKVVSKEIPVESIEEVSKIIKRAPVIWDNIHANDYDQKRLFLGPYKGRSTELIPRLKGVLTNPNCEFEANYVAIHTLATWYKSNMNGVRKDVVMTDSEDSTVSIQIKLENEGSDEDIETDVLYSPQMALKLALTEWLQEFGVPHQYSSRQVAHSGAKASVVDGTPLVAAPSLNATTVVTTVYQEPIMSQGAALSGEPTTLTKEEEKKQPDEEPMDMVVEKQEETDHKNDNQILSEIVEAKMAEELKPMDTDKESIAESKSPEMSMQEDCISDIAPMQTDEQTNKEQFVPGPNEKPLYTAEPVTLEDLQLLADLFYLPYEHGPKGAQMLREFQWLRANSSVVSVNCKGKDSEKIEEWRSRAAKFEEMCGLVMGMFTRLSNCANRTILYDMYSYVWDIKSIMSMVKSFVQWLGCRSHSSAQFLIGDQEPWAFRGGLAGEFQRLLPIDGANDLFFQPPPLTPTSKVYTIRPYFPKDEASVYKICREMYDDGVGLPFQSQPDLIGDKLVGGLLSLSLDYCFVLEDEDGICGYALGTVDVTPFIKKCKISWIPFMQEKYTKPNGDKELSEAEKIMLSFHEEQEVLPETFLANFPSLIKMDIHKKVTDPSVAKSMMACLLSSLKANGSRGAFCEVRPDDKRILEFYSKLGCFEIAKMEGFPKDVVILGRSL
The experiment in a line: OGA cellular assay (ICC detection of O-GlcNAcylated proteins in HEK293 cells inducible for P301L mutant human Tau). In kind it is cell-based. The conditions noted are these: 6 hours incubation; for Emax: HEK293, HEK293 cells inducible for P301L mutant human Tau, maximum = Thiamet G 200 uM; for EC50: HEK293 cells inducible for P301L mutant human Tau, read-out: Cellular hOGA, pEC50 (converted). As for the experimental part:
HEK293 cells inducible for P301L mutant human Tau (isoform 2N4R) were established at Janssen. Thiamet-G was used for both plate validation (high control) and as reference compound (reference EC50 assay validation). OGA inhibition is evaluated through the immunocytochemical (ICC) detection of O-GlcNAcylated proteins by the use of a monoclonal antibody (CTD110.6; Cell Signaling, #9875) detecting 0-GlcNAcylated residues as previously described (Dorfmueller et al. 2010 Chemistry & biology, 17:1250). Inhibition of OGA will result in an increase of 0-GlcNAcylated protein levels resulting in an increased signal in the experiment. Cell nuclei are stained with Hoechst to give a cell culture quality control and a rough estimate of immediate compounds toxicity, if any. ICC pictures are imaged with a Perkin Elmer Opera Phenix plate microscope and quantified with the provided software Perkin Elmer Harmony 4.1.
Cells were propagated in DMEM high Glucose (Sigma, #D5796) following standard procedures. 2 days before the cell assay cells are split, counted and seeded in Poly-D-Lysine (PDL) coated 96-wells (Greiner, #655946) plate at a cell density of 12,000 cells per cm^2 (4,000 cells per well) in 100p of Assay Medium (Low Glucose medium is used to reduce basal levels of GlcNAcylation) (Park et al. 2014 The Journal of biological chemistry 289:13519). At the day of compound test medium from assay plates was removed and replenished with 90 μl of fresh Assay Medium. 10 μl of compounds at a 10 fold final concentration were added to the wells. Plates were centrifuged shortly before incubation in the cell incubator for 6 hours. DMSO concentration was set to 0.2%. Medium is discarded by applying vacuum. For staining of cells medium was removed and cells washed once with 100 μl D-PBS (Sigma, #D8537). From next step onwards unless other stated assay volume was always 50p and incubation was performed without agitation and at room temperature. Cells were fixed in 50 μl of a 4% paraformaldehyde (PFA, Alpha aesar, #043368) PBS solution for 15 minutes at room temperature. […] Before analysis samples were washed 2 times manually for 5 minutes in ICC base buffer.
Imaging is performed using Perkin Elmer Phenix Opera using a water 20× objective and recording 9 fields per well. Intensity readout at 488 nm is used as a measure of O-GlcNAcylation level of total proteins in wells. To assess potential toxicity of compounds nuclei were counted using the Hoechst staining. IC50-values are calculated using parametric non-linear regression model fitting. As a maximum inhibition Thiamet G at a 200 uM concentration is present on each plate. In addition, a concentration response of Thiamet G is calculated on each plate.

Experiment [1] concerns the target T2, recombinant human Meningioma Expressed Antigen 5 (MGEA5), also referred to as O-GlcNAcase (OGA) (Homo sapiens, UniProt O60502).
T2 construct: Full length OGA enzyme was purchased at OriGene (cat #TP322411); purchased OriGene TP322411
T2 sequence (O60502 1-916): T1 sequence (O60502 1-916)
In words: OGA biochemical assay (inhibition of FM-GlcNAc hydrolysis, fluorescence). The settings on record: for Emax: read-out: Enzymatic Emax (%); for IC50: read-out: Enzymatic hOGA, pIC50 (converted). The text has this: The assay is based on the inhibition of the hydrolysis of fluorescein mono-B-D-N-Acetyl-Glucosamine (FM-GcNAc) (Mariappa et al. 2015, Biochem J470:255) by the recombinant human Meningioma Expressed Antigen 5 (MGEA5), also referred to as O-GlcNAcase (OGA). The hydrolysis FM-GlcNAc (Marker Gene technologies, cat #M1485) results in the formation of B-D-N-glucosamineacetate and fluorescein. The fluorescence of the latter can be measured at excitation wavelength 485 nm and emission wavelength 538 nm. An increase in enzyme activity results in anincrease in fluorescence signal. Full length OGA enzyme was purchased at OriGene (cat #TP322411). The enzyme was stored in 25 mM Tris.HCl, pH 7.3, 100 mM glycine, 10% glycerol at −20° C. Thiamet G and GlcNAcStatin were tested as reference compounds (Yuzwa et al. 2008 Nature Chemical Biology 4:483; Yuzwa et al. 2012 Nature Chemical Biology 8:393). The assay was performed in 200 mM Citrate/phosphate buffer supplemented with 0.005% Tween-20. 35.6 g Na2HPO4 2H2O (Sigma, #C0759) were dissolved in 1 L water to obtain a 200 mM solution. 19.2 g citric acid (Merck, #1.06580) was dissolved in 1 L water to obtain a 100 mM solution. pH of the sodiumphosphate solution was adjusted with the citric acid solution to 7.2. The buffer to stop the reaction consists of a 500 mM Carbonate buffer, pH 11.0. 734 mg FM-GlcNAc were dissolved in 5.48 mL DMSO to obtain a 250 mM solution and was stored at −20° C. OGA was used at a 2 nM concentration and FM-GcNAc at a 100 uM final concentration. Dilutions were prepared in assay buffer.
50 nl of a compound dissolved in DMSO was dispensed on Black Proxiplate™ 384 Plus Assay plates (Perkin Elmer, #6008269) and 3 μl fl-OGA enzyme mix added subsequently. Plates were pre-incubated for 60 min at room temperature and then 2 μl FM-GlcNAc substrate mix added.
Plates were briefly centrifuged for 1 min at 1000 rpm and incubate at room temperature for 6 h. To stop the reaction 5 μl STOP buffer were added and plates centrifuge again 1 min at 1000 rpm. Fluorescence was quantified in the Thermo Scientific Fluoroskan Ascent or the PerkinElmer EnVision with excitation wavelength 485 nm and emission wavelength 538 nm.
For analysis a best-fit curve is fitted by a minimum sum of squares method. From this an IC50 value and Hill coefficient was obtained. High control (no inhibitor) and low control (saturating concentrations of standard inhibitor) were used to define the minimum and maximum values.

SMILES strings stand for the structures. A value given as a limit tells only on which side of the number the result lay.

As for `C[C@@H](c1nc2c(cc1F)OCCO2)N1CCC(Oc2ccc(C#N)nn2)CC1` (single isomer, unassigned) [Compound 86], on OGA, the Emax amounted to 100% and the EC50 was 100 nM. In experiment [1], the Emax was 94% and the IC50 was 15.8 nM.

For the compound `C[C@@H](c1ccc2c(n1)OCCO2)N1CCC(Oc2ccc(C(N)=O)nn2)CC1` (single isomer, unassigned) [Compound 106], at OGA, the Emax turned out to be 48% and the EC50 is 631 nM. In experiment [1], the Emax turned out to be 95% and the IC50 was 126 nM.

For `Cc1cc(OC2CCN([C@@H](C)c3nc4c(cc3F)CCO4)CC2)cc(C)n1` (single isomer, unassigned) [Compound 145], on OGA, the Emax was found to be 8% and the EC50 is above 1000 nM. Further, in experiment [1], the Emax came out at 86% and the IC50 was 1580 nM.

For the compound `Cc1cc(OC2CCN([C@H](C)c3ccc4c(n3)OCCO4)CC2)cc(C(F)(F)F)n1` (single isomer, unassigned) [Compound 146], at OGA, the Emax was 2% and the EC50 is above 1000 nM. In addition, in experiment [1], the Emax amounted to 58% and the IC50 was 6310 nM.

Turning to `Cc1cc(OC2CCN([C@@H](C)c3ccc4c(n3)OCCO4)CC2)cc(C(F)(F)F)n1` (single isomer, unassigned) [Compound 147], on OGA, the Emax amounted to 81% and the EC50 is 200 nM. Besides, in experiment [1], the Emax came out at 96% and the IC50 is 25.1 nM.

For `Cc1cc(OC2CCN([C@@H](C)c3nc4c(cc3F)OCCO4)CC2)cc(C)n1` (single isomer, unassigned) [Compound 149], on OGA, the Emax was -2% and the EC50 is above 1000 nM. Besides, in experiment [1], the Emax came to 58% and the IC50 is 6310 nM.

`Cc1cc(OC2CCN(C(C)c3nc4c(cc3F)OCCO4)CC2)cc(C)n1` (stereo not drawn) [Compound 4]: on OGA, the Emax was 76% and the EC50 was 39.8 nM. Also, in experiment [1], the Emax is 99% and the IC50 was 12.6 nM.

`Cc1cc(OC2CCN(C(C)c3cnc4c(c3)OCCO4)CC2)cc(C)n1` (stereo not drawn) [Compound 5]: on OGA, the Emax was determined as 22% and the EC50 is above 1000 nM. In addition, in experiment [1], the Emax was 93% and the IC50 was 1260 nM.

Regarding `Cc1cc(OC2CCN(C(C)c3nc4c(cc3F)CCO4)CC2)cc(C)n1` (stereo not drawn) [Compound 6], on OGA, the Emax is 87% and the EC50 is 17.4 nM. Also, in experiment [1], the Emax was 101% and the IC50 was 3.98 nM.

On to `Cc1cc(OC2CCN(C(C)c3ccc4sc(C)nc4n3)CC2)cc(C)n1` (stereo not drawn) [Compound 7], for which, on OGA, the Emax was 71% and the EC50 was 398 nM. For the same compound, in experiment [1], the Emax turned out to be 100% and the IC50 was 63.1 nM.

Turning to `Cc1cc(OC2CCN(C(C)c3cc4nc(C)sc4cc3F)CC2)cc(C)n1` (stereo not drawn) [Compound 8], on OGA, the Emax is 89% and the EC50 was 63.1 nM. In addition, in experiment [1], the Emax worked out at 100% and the IC50 was 15.8 nM.

Turning to `Cc1cc(OC2CCN(C(C)c3nc4c(cc3F)OCCO4)CC2)nc(C)n1` (stereo not drawn) [Compound 12], on OGA, the Emax was 74% and the EC50 is 79.4 nM. For the same compound, in experiment [1], the Emax was determined as 99% and the IC50 was 15.8 nM.

As to `Cc1cc(OC2CCN(C(C)c3cnc4c(c3)OCCO4)CC2)nc(C)n1` (stereo not drawn) [Compound 13], at OGA, the Emax is 8% and the EC50 was above 1000 nM. In experiment [1], the Emax is 96% and the IC50 is 501 nM.

Consider `COc1cc(OC2CCN(C(C)c3ccc4c(n3)OCCO4)CC2)cc(C)n1` (stereo not drawn) [Compound 14], for which, at OGA, the Emax came out at 82% and the EC50 is 126 nM. For the same compound, in experiment [1], the Emax is 100% and the IC50 is 20 nM.

With `COc1cc(OC2CCN(C(C)c3nc4c(cc3F)OCCO4)CC2)cc(C)n1` (stereo not drawn) [Compound 15], on OGA, the Emax was found to be 72% and the EC50 was 50.1 nM. In addition, in experiment [1], the Emax is 102% and the IC50 was 5.01 nM.

In the case of `COc1cc(OC2CCN(C(C)c3ccc4sc(C)nc4n3)CC2)cc(C)n1` (stereo not drawn) [Compound 16], on OGA, the Emax stood at 91% and the EC50 was 126 nM. For the same compound, in experiment [1], the Emax stood at 99% and the IC50 was 25.1 nM.

Regarding `Cc1cc(OC2CCN(C(C)c3ccc4c(n3)OCCO4)CC2)cc(C(F)(F)F)n1` (stereo not drawn) [Compound 17], on OGA, the Emax worked out at 61% and the EC50 was 316 nM. For the same compound, in experiment [1], the Emax worked out at 100% and the IC50 was 39.8 nM.

As for `Cc1cc(OC2CCN(C(C)c3nc4c(cc3F)OCCO4)CC2)cc(C(F)(F)F)n1` (stereo not drawn) [Compound 18], on OGA, the Emax was determined as 79% and the EC50 is 63.1 nM. Besides, in experiment [1], the Emax worked out at 101% and the IC50 was 6.31 nM.

One may read the Emax as the maximal effect, on the per cent scale that the assay sets.
